Patent US20140120577A1, “Metalloporphyrin Inducible Promoter” (CHR HANSEN A/S, priority 2011, published 2014)
Like-named read-outs stand apart in the source and are kept apart here.

Assays:
[1] = tested on: promoter of the ygƒCBA operon (Pheme); experiment: lacZ reporter (beta-galactosidase) induction in Streptococcus agalactiae NEM316; assay type: cell-based; details: for amount of inducer resulting in optimal induction: 1 or 10 μM tested; for induction (in words): BHI-Tris-glucose, non-aerated and aerated cultures; for induction over background without hemin: M17-glucose, added at OD600 ~0.3, 1 hour; for induction of the promoter (in words): summary statement
Procedure: The pTCV-lac plasmid was used to transform the Streptococcus agalactiae strain NEM316. The transformants were selected on solid M17-glucose (0.5%) medium containing erythromycin 3 μg/ml.
Hemin and PPIX-Ga solutions are prepared as described in Example 2 above.
The Streptococcus agalactiae cells carrying the plasmid are precultured overnight at 37° C. in M17-glucose (0.2%) and 3 μg/ml erythromycin, or in BHI-Tris medium supplemented with 3 μg/ml erythromycin.
The following day, the precultures are diluted 100-fold in new M17-glucose (1%) medium supplemented with 3 μg/ml erythromycin, or BHI-Tris-glucose (0.5% final concentration), and 3 μg/ml erythromycin. The cultures are grown at 37° C. either under non-aeration conditions or under aeration conditions and growth is monitored by measuring the OD600 as described above for Lactococcus lactis.
The inducer is added during growth when bacteria exit the lag phase (OD600=˜0.25 to 0.3).
Cells are recovered from the cultures at OD600=1, and bacterial beta-galactosidase activity is quantified as described in Example 2 above.

[2] = tested on: PhemeygƒC inducible system; experiment: PHEME-ygƒC-lacZ reporter induction in Lactobacillus casei (BETA-GLO test); assay type: cell-based; details: 10 μM hemin; MRS; static or aerated; 1 hour; endogenous background subtracted
Procedure: The pTCV-PhemeygƒC-lacZ plasmid described in Example 1 was used to transform a Lactobacillus casei laboratory strain. Transformants were selected on solid MRS medium containing erythromycin 3 μg/ml.
Hemin was prepared as described in Example 2 above.
The Lactobacillus casei cells carrying the pTCV-PhemeygƒC-lacZ plasmid were precultured overnight at 37° C. in MRS containing 3 μg/ml erythromycin. […] This was used as a control for background due to endogenous beta-galactosidase activity present in this species.
The following day, the precultures were diluted 20-fold in fresh MRS medium supplemented with 3 μg/ml erythromycin. The cultures were grown at 37° C. under static and aeration conditions and growth was monitored by measuring the OD600 as described above for Lactococcus lactis. The hemin inducer (10 μM final concentration) was added during growth once bacteria were in exponential phase (OD600=˜0.4).
Cells in mid exponential phase (OD600=˜0.4) were recovered from the cultures after 1 hour in the presence of the hemin inducer and the volumes were adjusted to a final fixed OD600 for the assay. In this experiment, bacterial beta-galactosidase activity is quantified using the commercially available BETA-GLO test (Promega), following manufacturer instructions.

[3] = tested on: promoter of the ygƒCBA operon (Pheme); experiment: lacZ reporter (beta-galactosidase, Miller method) induction from pTCV Pheme-ygfC-lacZ plasmid in L. lactis MG1363; assay type: cell-based, Lactococcus lactis; details: for fold induction of beta-galactosidase: M17-glucose (1%)
Procedure: The pTCV-lac plasmid was used to transform the L. lactis strain MG1363. The transformants were selected on M17 plus glucose (0.5%) solid medium containing erythromycin 3 μg/ml. Colonies were purified and cells stored at −80° C.
Hemin solution is prepared at 20 mM in 50 mM NaOH, and aliquoted for storage at −20° C.; one tube is used for each assay and is then discarded.
PPIX-Ga solution is prepared at 10 mM in dimethylsulfoxide, and prepared in aliquots for storage at −20° C.; one tube is used for each assay and is then discarded.
The L. lactis cells carrying the plasmid are precultured overnight at 30° C. under non-aeration conditions in M17-glucose (0.5%) medium or BHI-Tris (note that BHI includes 0.2% glucose). The media are supplemented with 3 μg/ml erythromycin to maintain the plasmid.
The following day, the precultures are diluted 100-fold in new M17-glucose (1%) medium or BHI-Tris medium (0.5% final glucose concentration), and containing 3 μg/ml erythromycin. The cultures are grown at 30° C. either under non-aeration conditions (nonagitated cultures in full bottles), or under aeration conditions (cultures in conical flasks with baffles, one tenth full; agitation at 170 rpm in the presence of air). The growth is monitored by measuring the OD600.
The inducer is added either simultaneously with the bacteria, or during growth when the bacteria exit the lag phase (OD600=˜0.1 in M17-glucose [1%] medium, OD600=˜0.2 to 0.3 in BHI-Tris-glucose medium).
Cells are recovered from the cultures at OD600=1, and beta-galactosidase activity of the bacterial extracts is quantified by the Miller method (MILLER, Experiments in molecular genetics. Cold Spring Harbor Laboratory Press, Cold Spring Harbor, N.Y., 1972). In the presence of o-nitrophenyl-β-D-galactoside (ONPG), beta-galactosidase produces yellow-colored O-nitrophenol which can be assayed by measuring the optical density at 420 nm (A420); Beta-galactosidase activity of each sample is measured in Miller units by the following formula: 1000×A420/T(min)×V(ml)×A600. This formula measures activity in a cell sample, such that the value is standardized to the same cell biomass (given as the A600 value).

ygƒCBA operon = details: 100 μM heme, cited from earlier work
[4] = BHI-Tris-glucose medium, non-aeration or aeration

Structure (SMILES)	amount of inducer resulting in optimal induction [1, 4] [µM]	induction (in words) [1]	amount of inducer resulting in optimal induction ([1]; M17-glucose medium, non-aeration and aeration) [µM]	induction over background without hemin ([1]; aeration conditions)	induction over background without hemin ([1]; non-aeration conditions)	induction of the promoter (in words) [1]	induction of beta-galactosidase (in words) [2]	fold induction of beta-galactosidase ([3]; aeration, inducer added during growth (OD600 ~0.1), cells recovered at OD600=1) [fold]	fold induction of beta-galactosidase ([3]; aeration, inducer added simultaneously with the bacteria, cells recovered at OD600=1) [fold]	increase of beta-galactosidase expression ([3]; depending on the heme concentration and the culture conditions)	induction of the ygƒCBA operon (ygƒCBA operon; aeration conditions)	induction of the ygƒCBA operon (ygƒCBA operon; non-aeration conditions)	fold induction of beta-galactosidase ([3]; non-aeration (static), 10 or 20 μM added during growth (OD600 ~0.1)) [fold]	fold induction of beta-galactosidase ([3]; non-aeration (static), 10 or 20 μM added simultaneously with the bacteria) [fold]	induction of the promoter (in words) ([3]; aeration and non-aeration conditions)
C=CC1=C(C)c2cc3[n-]c(cc4[n-]c(cc5nc(cc1n2)C(C)=C5C=C)c(C)c4CCC(=O)O)c(CCC(=O)O)c3C.[Cl-].[Fe+3] [hemin]	1	efficient	1	more than 150 fold	less than 50 fold	efficient inducers	strong induction	80	70	up to 100 fold	up to 50 fold	up to 80 fold			
C=CC1=C(C)C2=[N+]3C1=Cc1c(C)c(C=C)c4[n]1[Ga-]31[n]3c(c(C)c(CCC(=O)O)c3=CC3=[N+]1C(=C4)C(C)=C3CCC(=O)O)=C2 (stereo not drawn) [Ga-PPIX, gallium-protoporphyrin IX]	10	efficient				efficient inducers							120	90	efficient inducer
